Data taken from patent publication US7109338B2, “1,2-disubstituted 1,4-dihydro-4-oxoquinoline compounds” (priority 1999, dated 2006).
≈ marks a conversion by molar mass, not a printed value.

Assays:
[1] = tested on: echovirus type 11 (Echo 11, Gregory); test: In vitro anti-picornavirus activity (MTT), Echo 11; type: cell-based; conditions: HeLa-S3 cells, MTT method, 37° C.
HRV36 (342H) = test: Anti-rhinovirus spectrum (MTT), HRV36; type: cell-based, human rhinovirus; parameters: Anti-Rhinovirus activity, HRV36: unit not given here; conditions: HRV36
[2] = tested on: coxsackievirus type B4 (CB4,JVB); test: In vitro anti-picornavirus activity (MTT), CB4; type: cell-based; conditions: HeLa cells, MTT method, 37° C.
HRV 89 (41617-Gallo) = test: Anti-rhinovirus activity (MTT), HRV89; type: cell-based, human rhinovirus; parameters: Anti-Rhinovirus activity, HRV89: unit not given here; conditions: for IC50 HRV89: HeLa (Ohio strain) cells, MTT method, 33° C.
HeLa cells = test: Cytotoxicity (MTT, without virus), HeLa; conditions: HeLa, no virus, incubated for 4 days
HRV14 (1059) = test: Anti-rhinovirus activity (MTT), HRV14; type: cell-based, human rhinovirus; parameters: Anti-Rhinovirus activity, HRV14: unit not given here; conditions: for IC50 HRV 14: HeLa (Ohio strain) cells, MTT method, 33° C.
HRV3(FEB) = test: Anti-rhinovirus spectrum (MTT), HRV3; type: cell-based, human rhinovirus; parameters: Anti-Rhinovirus activity, HRV3: unit not given here; conditions: HRV3
HRV1A (E28) = test: Anti-rhinovirus activity (MTT), HRV1A; type: cell-based, human rhinovirus; parameters: Anti-Rhinovirus activity, HRV1A: unit not given here; conditions: for IC50 HRV 1A: HeLa (Ohio strain) cells, MTT method, 33° C.
HRV39 (209) = test: Anti-rhinovirus spectrum (MTT), HRV39; type: cell-based, human rhinovirus; parameters: Anti-Rhinovirus activity, HRV39: unit not given here; conditions: HRV39
[3] = tested on: human rhinovirus type 1B (HRV 1B, B632); test: Anti-rhinovirus activity (MTT), HRV1B; type: cell-based; parameters: Anti-Rhinovirus activity, HRV1B: unit not given here; conditions: for IC50 HRV1B: HeLa (Ohio strain) cells, MTT method, 33° C.
HRV10 (204-CV14) = test: Anti-rhinovirus spectrum (MTT), HRV10; type: cell-based, human rhinovirus; parameters: Anti-Rhinovirus activity, HRV10: unit not given here; conditions: HRV10
HRV50(A2#58) = test: Anti-rhinovirus spectrum (MTT), HRV50; type: cell-based, human rhinovirus; parameters: Anti-Rhinovirus activity, HRV50: unit not given here; conditions: HRV50
HRV5 = test: Anti-rhinovirus spectrum (MTT), HRV5; type: cell-based, human rhinovirus; parameters: Anti-Rhinovirus activity, HRV5: unit not given here; conditions: HRV5
HeLa-S3 cells = test: Cytotoxicity (MTT, without virus), HeLa-S3; conditions: HeLa-S3, no virus, incubated for 4 days
HRV32 (363) = test: Anti-rhinovirus spectrum (MTT), HRV32; type: cell-based, human rhinovirus; parameters: Anti-Rhinovirus activity, HRV32: unit not given here; conditions: HRV32
HRV21 (47) = test: Anti-rhinovirus spectrum (MTT), HRV21; type: cell-based, human rhinovirus; parameters: Anti-Rhinovirus activity, HRV21: unit not given here; conditions: HRV21
[4] = tested on: Poliovirus type 1 (Polio 1, Sabin); test: microbe, parasite or virus in culture; type: cell-based
HRV31 (41F) = test: Anti-rhinovirus spectrum (MTT), HRV31; type: cell-based, human rhinovirus; parameters: Anti-Rhinovirus activity, HRV31: unit not given here; conditions: HRV31
HeLa (Ohio strain)cells = test: Cytotoxicity (MTT, without virus), HeLa(Ohio); conditions: HeLa(Ohio), no virus, incubated for 4 days
HRV61 (6669-CV39) = test: Anti-rhinovirus spectrum (MTT), HRV61; type: cell-based, human rhinovirus; parameters: Anti-Rhinovirus activity, HRV61: unit not given here; conditions: HRV61
HRV 2 (HGP) = test: Anti-rhinovirus activity (MTT), HRV2; type: cell-based, human rhinovirus; parameters: Anti-Rhinovirus activity, HRV2: unit not given here; conditions: for IC50 HRV2: HeLa (Ohio strain) cells, MTT method, 33° C.
HRV8(MRH) = test: Anti-rhinovirus spectrum (MTT), HRV8; type: cell-based, human rhinovirus; parameters: Anti-Rhinovirus activity, HRV8: unit not given here; conditions: HRV8
HRV33 (1200) = test: Anti-rhinovirus spectrum (MTT), HRV33; type: cell-based, human rhinovirus; parameters: Anti-Rhinovirus activity, HRV33: unit not given here; conditions: HRV33
HRV16 (11757) = test: Anti-rhinovirus spectrum (MTT), HRV16; type: cell-based, human rhinovirus; parameters: Anti-Rhinovirus activity, HRV16: unit not given here; conditions: HRV16
[5] = tested on: clinical isolate (89229T); test: microbe, parasite or virus in culture; type: cell-based, human rhinovirus; parameters: Anti-Rhinovirus activity, Clinical isolated strain: unit not given here; conditions: Clinical isolated strain
HRV13 (353) = test: Anti-rhinovirus spectrum (MTT), HRV13; type: cell-based, human rhinovirus; parameters: Anti-Rhinovirus activity, HRV13: unit not given here; conditions: HRV13
HRV29 (5582) = test: Anti-rhinovirus spectrum (MTT), HRV29; type: cell-based, human rhinovirus; parameters: Anti-Rhinovirus activity, HRV29: unit not given here; conditions: HRV29
[6] = tested on: coxsackievirus type A7 (CA7); test: In vitro anti-picornavirus activity (MTT), CA7; type: cell-based; conditions: HeLa-S3 cells, MTT method, 37° C.
HRV41 (56110) = test: Anti-rhinovirus spectrum (MTT), HRV41; type: cell-based, human rhinovirus; parameters: Anti-Rhinovirus activity, HRV41: unit not given here; conditions: HRV41

SMILES	IC50 Echo 11 [1]	Anti-Rhinovirus activity, HRV36 (HRV36 (342H))	IC50 CB4 [2]	Anti-Rhinovirus activity, HRV89 (HRV 89 (41617-Gallo))	IC50 HRV89 (HRV 89 (41617-Gallo))	Cytotoxicity CC50 HeLa (HeLa cells)	Anti-Rhinovirus activity, HRV14 (HRV14 (1059))	IC50 HRV 14 (HRV14 (1059))	Anti-Rhinovirus activity, HRV3 (HRV3(FEB))	Anti-Rhinovirus activity, HRV1A (HRV1A (E28))	IC50 HRV 1A (HRV1A (E28))	Anti-Rhinovirus activity, HRV39 (HRV39 (209))	Anti-Rhinovirus activity, HRV1B [3]	IC50 HRV1B [3]	Anti-Rhinovirus activity, HRV10 (HRV10 (204-CV14))	Anti-Rhinovirus activity, HRV50 (HRV50(A2#58))	Anti-Rhinovirus activity, HRV5 (HRV5)	Cytotoxicity CC50 HeLa-S3 (HeLa-S3 cells)	Anti-Rhinovirus activity, HRV32 (HRV32 (363))	Anti-Rhinovirus activity, HRV21 (HRV21 (47))	other results
CCn1c2c(c(=O)c3c(C(C)C)c(OC)ccc31)Cc1ccccc1-2 [Compound B7]	0.25 µg/mL (≈ 0.75 µM)	0.16	0.52 µg/mL (≈ 1.56 µM)	0.30	0.30 µg/mL (≈ 0.9 µM)	>2.5 µg/mL	0.49	0.49 µg/mL (≈ 1.47 µM)	0.49	1.7	1.7 µg/mL (≈ 5.1 µM)	0.38	0.20	0.17 µg/mL (≈ 0.51 µM)	0.41	0.12	0.22	>2.5 µg/mL	0.30	0.11	IC50 Polio 1 [4]: 0.42 µg/mL (≈ 1.26 µM); Anti-Rhinovirus activity, HRV31 (HRV31 (41F)): 0.13; Cytotoxicity CC50 HeLa(Ohio) (HeLa (Ohio strain)cells): >2.5 µg/mL; Anti-Rhinovirus activity, HRV61 (HRV61 (6669-CV39)): 0.28; Anti-Rhinovirus activity, HRV2 (HRV 2 (HGP)): 0.36; IC50 HRV2 (HRV 2 (HGP)): 0.36 µg/mL (≈ 1.08 µM); Anti-Rhinovirus activity, HRV8 (HRV8(MRH)): 0.32; Anti-Rhinovirus activity, HRV33 (HRV33 (1200)): 0.097; Anti-Rhinovirus activity, HRV16 (HRV16 (11757)): 0.98; Anti-Rhinovirus activity, Clinical isolated strain [5]: 0.50; Anti-Rhinovirus activity, HRV13 (HRV13 (353)): 0.13; Anti-Rhinovirus activity, HRV29 (HRV29 (5582)): 0.43; IC50 CA7 [6]: 1.4 µg/mL (≈ 4.2 µM); Anti-Rhinovirus activity, HRV41 (HRV41 (56110)): 0.064
CCn1c2c(c(=O)c3cc(C(C)C)ccc31)Cc1cc(OC)ccc1-2 [Compound B10]	0.14 µg/mL (≈ 0.42 µM)	0.17	0.57 µg/mL (≈ 1.71 µM)	0.33	0.33 µg/mL (≈ 0.99 µM)	>2.5 µg/mL	0.52	0.52 µg/mL (≈ 1.56 µM)	0.48	1.9	1.9 µg/mL (≈ 5.7 µM)	0.39	0.25	0.25 µg/mL (≈ 0.75 µM)	0.41	0.10	0.24	>2.5 µg/mL	0.36	0.16	IC50 Polio 1 [4]: 0.17 µg/mL (≈ 0.51 µM); Anti-Rhinovirus activity, HRV31 (HRV31 (41F)): 0.15; Cytotoxicity CC50 HeLa(Ohio) (HeLa (Ohio strain)cells): >2.5 µg/mL; Anti-Rhinovirus activity, HRV61 (HRV61 (6669-CV39)): 0.24; Anti-Rhinovirus activity, HRV2 (HRV 2 (HGP)): 0.16; IC50 HRV2 (HRV 2 (HGP)): 0.16 µg/mL (≈ 0.48 µM); Anti-Rhinovirus activity, HRV8 (HRV8(MRH)): 0.20; Anti-Rhinovirus activity, HRV33 (HRV33 (1200)): 0.11; Anti-Rhinovirus activity, HRV16 (HRV16 (11757)): 0.57; Anti-Rhinovirus activity, Clinical isolated strain [5]: 0.75; Anti-Rhinovirus activity, HRV13 (HRV13 (353)): 0.12; Anti-Rhinovirus activity, HRV29 (HRV29 (5582)): 0.44; IC50 CA7 [6]: 1.4 µg/mL (≈ 4.2 µM); Anti-Rhinovirus activity, HRV41 (HRV41 (56110)): 0.007
CCn1c2c(c(=O)c3cc(CC(C)C)ccc31)Cc1cc(OC)ccc1-2 [Compound B15]	0.27 µg/mL (≈ 0.777 µM)	0.32	1.9 µg/mL (≈ 5.47 µM)	0.39	0.39 µg/mL (≈ 1.12 µM)	>2.5 µg/mL	0.84	0.84 µg/mL (≈ 2.42 µM)	1.1	>2.5	>2.5 µg/mL	0.46	0.36	0.36 µg/mL (≈ 1.04 µM)	1.1	0.28	0.39	>2.5 µg/mL	0.65	0.34	IC50 Polio 1 [4]: 0.49 µg/mL (≈ 1.41 µM); Anti-Rhinovirus activity, HRV31 (HRV31 (41F)): 0.38; Cytotoxicity CC50 HeLa(Ohio) (HeLa (Ohio strain)cells): >2.5 µg/mL; Anti-Rhinovirus activity, HRV61 (HRV61 (6669-CV39)): 0.39; Anti-Rhinovirus activity, HRV2 (HRV 2 (HGP)): 0.44; IC50 HRV2 (HRV 2 (HGP)): 0.44 µg/mL (≈ 1.27 µM); Anti-Rhinovirus activity, HRV8 (HRV8(MRH)): 0.38; Anti-Rhinovirus activity, HRV33 (HRV33 (1200)): 0.29; Anti-Rhinovirus activity, HRV16 (HRV16 (11757)): 1.2; Anti-Rhinovirus activity, Clinical isolated strain [5]: 1.1; Anti-Rhinovirus activity, HRV13 (HRV13 (353)): 0.18; Anti-Rhinovirus activity, HRV29 (HRV29 (5582)): 0.67; IC50 CA7 [6]: 2.2 µg/mL (≈ 6.33 µM); Anti-Rhinovirus activity, HRV41 (HRV41 (56110)): 0.18
